Measurements taken from patent publication US4540705A, “Antidepressant imidazolines and related compounds” (priority 1983, dated 1985).
Read-outs that look alike come from different tables or passages of the source.

What was measured:
α2 -adrenergic [1] = settings: prior-art compounds; cited from earlier work
α2 -adrenergic [2] = experiment: α2 -adrenergic antagonist activity (general statement)
Protocol: On the other hand, the sympathomimetic activity characteristic of the latter group of compounds is not present in the compounds of the present invention.
The α2 -adrenergic antagonist activity is measured by three screening methods, described as follows: […]

male rats = experiment: Diuretic activity in male rats in comparison with hydrochlorothiazide; type: in vivo, rat
[3] = test system: mice (α2 -adrenergic antagonism of clonidine); experiment: In vivo Antagonism of Clonidine-induced Anti-nociception (phenyl-p-quinone writhing); settings: Mus musculus; for ED50: read-out: Antagonism of Clonidine Analgesia ED50 -p.o.
Protocol: (§1) The α2 -adrenergic antagonist activity is measured by three screening methods, described as follows:
(3) In vivo Antagonism of Clonidine-induced Anti-nociception
The intraperitoneal administration of phenyl-p-quinone (PPQ) to mice elicits a nociceptive response which consists of abdominal writhing and extension of the hind limbs. This writhing response is prevented in mice treated with clonidine. When an α2 -adrenergic antagonist is given prior to clonidine, the mice display the writhing response when PPQ is administered. To groups of thirty male mice for each experiment the test compound dissolved in 0.9% sodium chloride was administered either subcutaneously or orally. Clonidine (0.2 mg/kg) was administered orally when the test compound was given subcutaneously and subcutaneously when the test compound was administered orally. Twenty minutes after the administration of clonidine, PPQ (3 mg/kg) was given intraperitoneally. […] The number of mice that writhed at least three times during the five minute observation period was counted. The number of mice that writhed was scored for each dose of antagonist, and the percentage reversal of clonidine-induced anti-nociception (analgesia) was calculated by dividing the number of animals writhing by the total number of test animals and multiplying the quotient by 100.

[4] = biological target: T1, α2 -adrenergic binding sites (receptor) (Rattus norvegicus, UniProt P22909); experiment: Tritiated Clonidine Receptor Binding Assay; settings: for inhibition at 1 µM: at 1000 nM, read-out: Clonidine [^3 H] Binding % I.
T1 construct: to displace ^3 H-clonidine (an α2 -adrenergic agonist) from membranes of rat brain; from tissue; host or cells: rat cerebral cortex homogenate (membranes)
T1 sequence (P22909 1-465): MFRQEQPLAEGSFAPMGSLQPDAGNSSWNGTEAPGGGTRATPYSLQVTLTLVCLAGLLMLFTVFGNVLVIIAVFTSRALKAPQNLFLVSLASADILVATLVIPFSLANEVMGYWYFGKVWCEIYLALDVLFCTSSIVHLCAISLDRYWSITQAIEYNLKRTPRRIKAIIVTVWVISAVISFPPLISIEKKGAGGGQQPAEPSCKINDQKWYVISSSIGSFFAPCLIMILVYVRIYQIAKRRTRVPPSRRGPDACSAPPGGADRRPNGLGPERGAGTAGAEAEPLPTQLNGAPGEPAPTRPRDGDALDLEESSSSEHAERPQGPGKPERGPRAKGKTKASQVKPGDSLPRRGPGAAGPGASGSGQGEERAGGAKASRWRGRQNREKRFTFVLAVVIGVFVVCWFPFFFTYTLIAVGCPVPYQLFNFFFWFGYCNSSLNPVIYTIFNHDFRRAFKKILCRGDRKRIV
Protocol: as §1
(1) Tritiated Clonidine Receptor Binding Assay
Affinity is determined by assessing the ability of compounds to displace ^3 H-clonidine (an α2 -adrenergic agonist) from membranes of rat brain. Homogenates of rat cerebral cortex are incubated with 0.4 nM ^3 H-clonidine which binds to the α2 -adrenergic binding sites (receptor) present on the membranes of the homogenate. Compounds that bind to the α2 -adrenergic receptor, when added to the incubation mixture, will displace ^3 H-clonidine from its binding site, thereby diminishing the amount of bound radioactivity. The amount of ^3 H-clonidine still bound is quantitated by liquid scintillation spectrometry. The results are determined in terms of percent inhibition or as Ki values. Ki is a measure of the apparent affinity of the test substance for the α2 -adrenergic binding site, as determined by the method of Cheng and Prusoff, Biochemical Pharmacology 22, 3099 (1973).

mice = experiment: Prevention of tetrabenazine-induced ptosis in mice; type: in vivo; settings: Mus musculus, read-out: Tetrabenazine Reversal ED50
Text: A further measure of potential andidepressant activity was obtained by determining the effectiveness of the compounds of the invention in prevention of tetrabenazine-induced ptosis in mice by the method described by Barnett et al., Int. J. Neuropharmacol. 8, 353-360 (1969). The results were expressed in terms of ED50 values (effective dose in 50% of the animals).

[5] = biological target: T2, α2 -adrenergic, isolated rat vas deferens (Rattus norvegicus, UniProt P22909); experiment: Vas Deferens Assay: antagonism of clonidine-induced inhibition of twitch height; type: biochemical
T2 construct: isolated, electrically stimulated rat vas deferens; from tissue; host or cells: isolated rat vas deferens
T2 sequence (P22909 1-465): T1 sequence (P22909 1-465)
Protocol: as §1
Activity is determined by assessing the ability of compounds to antagonize the inhibition of twitch height induced by clonidine in the isolated, electrically stimulated rat vas deferens. […] The tissue is then rinsed to remove clonidine and, when the twitch height has returned to normal, the test compound is added. The ability of clonidine to inhibit twitch height is then again determined, and the clonidine-induced inhibition in the presence of the test compound is used to calculate percent antagonism of clonidine. Results are recorded in terms of percent inhibition at the concentration of antagonist used, or as pA2 values, determined by the Schild method; cf. Tallarida and Murray, Manual of Pharmacologic Calculations, pp. 29-32 (Springer-Verlag, 1981).

[6] = sc, 100 mg/kg s.c., read-out: Antagonism of Clonidine Analgesia % A.
[7] = 0.4 nM ^3 H-clonidine, rat cerebral cortex homogenate, read-out: Clonidine [^3 H] Binding Ki
[8] = po, 100 mg/kg p.o., read-out: Antagonism of Clonidine Analgesia % A.
[9] = Schild method, clonidine 10 nM, read-out: Rat Vas Deferens pA2 (converted)
[10] = rat, at 500 nM, clonidine 10 nM
[11] = sc, 30 mg/kg s.c., read-out: Antagonism of Clonidine Analgesia % A.
[12] = 0.4 nM ^3 H-clonidine, rat cerebral cortex homogenate

**Q.** With `c1ccc2c(c1)CCCC2C1=NCCN1` (stereo not shown) [tetrahydrozoline, 2-(1,2,3,4-tetrahydro-1-naphthyl)-2-imidazoline, reference compound] as the compound, how does the “α2 -adrenergic antagonist activity (in words, background section)” value (α2 -adrenergic [1]) read?
**A.** do not possess α2 -adrenergic antagonist activity

**Q.** What about the “α2 -adrenergic antagonist activity (in words)” value (α2 -adrenergic [2]) of the same compound?
**A.** essentially devoid of such activity

**Q.** Which “increase of sodium excretion, activity relative to hydrochlorothiazide” value (male rats; 30 mg/kg oral) does the source give for `CC1=C(CC2=NCC(C)(C)CN2)CCc2ccccc21` [Example 12, 2-[(3,4-Dihydro-1-methyl-2-naphthalenyl)methyl]-1,4,5,6-tetrahydro-5,5-dimethylpyrimidine] here?
**A.** 38%

**Q.** What about the “increase of sodium excretion, activity relative to hydrochlorothiazide” value (male rats; 100 mg/kg oral) of the same compound?
**A.** 94%

**Q.** And the “diuretic activity (in words)” value (male rats; in comparison with hydrochlorothiazide)?
**A.** found to possess diuretic activity

**Q.** What about the “α2 -adrenergic antagonist activity (in words)” value (α2 -adrenergic [2]) of the same compound?
**A.** apparently devoid of any significant α2 -adrenergic antagonist properties

**Q.** With `C[C@@H]1c2ccccc2CC[C@H]1CC1=NCCN1` (relative stereo) [15(d), trans-4,5-Dihydro-2-[(1,2,3,4-tetrahydro-1-methyl-2-naphthalenyl)methyl]-1H-imidazole] as the compound, how does the responders at 100 mg/kg [3, 6] read?
**A.** 30%

**Q.** What about the Ki [4, 7] of the same compound?
**A.** 401 nM

**Q.** Which results are given for `c1ccc2cc(CC3=NCCN3)ccc2c1` [Example 18, 4,5-Dihydro-2-(2-naphthalenylmethyl)-1H-imidazole]?
**A.** ED50 (mice): 27 mg/kg; responders at 100 mg/kg [3, 8]: 80%; ED50 ([3]; po): 53 mg/kg; Kb [5]: 21.4 nM; Ki [4]: 48 nM

**Q.** For `CC1=C(CC2=NCCN2)CCc2ccccc21` [1(b), 2-[(3,4-Dihydro-1-methyl-2-naphthalenyl)methyl]-4,5-dihydro-1H-imidazole], which ED50 (mice) is on record?
**A.** 18 mg/kg

**Q.** And the responders at 100 mg/kg [3, 8]?
**A.** 50%

**Q.** What about the ED50 ([3]; po) of the same compound?
**A.** 111 mg/kg

**Q.** And the Kb [5, 9]?
**A.** 63.1 nM

**Q.** What about the Ki [4, 7] of the same compound?
**A.** 11.9 nM

**Q.** With `CCN1CCN=C1CC1=C(C)c2ccccc2CC1` [Example 5, 2-[(3,4-Dihydro-1-methyl-2-naphthalenyl)methyl]-1-ethyl-4,5-dihydro-1H-imidazole] as the compound, how does the responders at 100 mg/kg [3, 6] read?
**A.** 20%

**Q.** What about the inhibition at 0.5 µM [5, 10] of the same compound?
**A.** 2%

**Q.** And the Ki [4, 7]?
**A.** 548 nM

**Q.** Which responders at 30 mg/kg [3, 11] does the source give for `CC(C1=Cc2ccccc2CC1)C1=NCCN1` (stereo not shown) [7(b), 2-[1-(3,4-Dihydro-2-naphthalenyl)ethyl]-4,5-dihydro-1H-imidazole] here?
**A.** 70%

**Q.** What about the Kb [5, 9] of the same compound?
**A.** 37.2 nM

**Q.** And the Ki [4, 7]?
**A.** 32 nM

**Q.** With `COc1ccc2c(c1)CCC(CC1=NCCN1)=C2C` [8(b), 2-[(3,4-Dihydro-6-methoxy-1-methyl-2-naphthalenyl)methyl]-4,5-dihydro-1H-imidazole] as the compound, how does the inhibition at 0.5 µM [5, 10] read?
**A.** 1%

**Q.** What about the inhibition at 1 µM [4, 12] of the same compound?
**A.** 53%

**Q.** With `CC1=C(CC2=NCCN2)Cc2ccccc21` [9(b), 4,5-Dihydro-2-[(3-methyl-1H-inden-2-yl)methyl]-1H-imidazole] as the compound, how does the responders at 30 mg/kg ([3]; po, 30 mg/kg p.o., read-out: Antagonism of Clonidine Analgesia % A.) read?
**A.** 10%

**Q.** What about the Kb [5, 9] of the same compound?
**A.** 19.5 nM

**Q.** What about the Ki [4, 7] of the same compound?
**A.** 7 nM

**Q.** Which responders at 100 mg/kg [3, 6] does the source give for `CC1=C(CC2=NCCN2C)CCc2ccccc21` [4(b), 2-[(3,4-Dihydro-1-methyl-2-naphthalenyl)methyl]-4,5-dihydro-1-methyl-1H-imidazole] here?
**A.** 20%

**Q.** And the “Rat Vas Deferens % A.” value ([5]; at 500 nM, clonidine 10 nM, 0.5 µM)?
**A.** 3%

**Q.** And the inhibition at 0.5 µM [5, 10]?
**A.** 2%

**Q.** What about the inhibition at 1 µM [4, 12] of the same compound?
**A.** 60%

**Q.** For `CC1=C(CC2=NC(C)CN2)CCc2ccccc21` (stereo not shown) [Example 6, 2-[(3,4-Dihydro-1-methyl-2-naphthalenyl)methyl]-4,5-dihydro-4-methyl-1H-imidazole], which responders at 100 mg/kg [3, 6] is on record?
**A.** 20%

**Q.** And the inhibition at 0.001 µM ([5]; rat, at 1 (head: Conc. (nM)), clonidine 10 nM)?
**A.** 3%

**Q.** And the inhibition at 1 µM [4, 12]?
**A.** 59%

**Q.** Which ED50 (mice) does the source give for `C1=C(CC2=NCCN2)CCc2ccccc21` [Example 2(b), 2-[(3,4-Dihydro-2-naphthalenyl)methyl]-4,5-dihydro-1H-imidazole] here?
**A.** 284 mg/kg

**Q.** And the ED50 ([3]; po)?
**A.** 33 mg/kg

**Q.** What about the responders at 100 mg/kg [3, 6] of the same compound?
**A.** 90%

**Q.** And the Kb [5, 9]?
**A.** 17.4 nM

**Q.** What about the Ki [4, 7] of the same compound?
**A.** 28 nM

**Q.** Which Ki [4, 7] does the source give for `CC1=C(CC2=NCCCN2)CCc2ccccc21` [Example 3, 2-[(3,4-Dihydro-1-methyl-2-naphthalenyl)methyl]-1,4,5,6-tetrahydropyrimidine] here?
**A.** 334 nM

**Q.** What does the source list for `CC1=C(Cc2ncc[nH]2)CCc2ccccc21` [Example 11, 2-[(3,4-Dihydro-1-methyl-2-naphthalenyl)methyl]-1H-imidazole]?
**A.** responders at 30 mg/kg [3, 11]: 60%; Kb [5, 9]: 120 nM; Ki [4, 7]: 88 nM

**Q.** Which results are given for `C[C@@H]1c2ccccc2CC[C@@H]1CC1=NCCN1` (relative stereo) [Example 16, cis-4,5-Dihydro-2-[(1,2,3,4-tetrahydro-1-methyl-2-naphthalenyl)methyl]-1H-imidazole]?
**A.** Kb [5, 9]: 60.3 nM; Ki [4, 7]: 135 nM

**Q.** For `Cc1c(CC2=NCCN2)ccc2ccccc12` [17(e), 4,5-Dihydro-2-[(1-methyl-2-naphthalenyl)methyl]-1H-imidazole], which ED50 (mice) is on record?
**A.** 3 mg/kg

**Q.** And the ED50 ([3]; po)?
**A.** 27 mg/kg

**Q.** What about the responders at 100 mg/kg [3, 6] of the same compound?
**A.** 70%

**Q.** And the Kb [5, 9]?
**A.** 44.7 nM

**Q.** What about the Ki [4, 7] of the same compound?
**A.** 7 nM

**Q.** With `C1=C(CC2=NCCN2)Cc2ccccc21` [10(b), 4,5-Dihydro-2-[(1H-inden-2-yl)methyl]-1H-imidazole] as the compound, how does the responders at 10 mg/kg ([3]; sc, 10 mg/kg s.c., read-out: Antagonism of Clonidine Analgesia % A.) read?
**A.** 70%

**Q.** And the Kb [5, 9]?
**A.** 64.6 nM

**Q.** What about the Ki [4, 7] of the same compound?
**A.** 76 nM
